Source: US20090311782A1, “METHOD FOR PROMOTING DIFFERENTIATION OF STEM CELL INTO INSULIN PRODUCING CELL” (TAIPEI VETERANS GENERAL HOSPITAL, priority 2008, published 2009)

Legend:
Type in all cases: cell-based
[1] = test system: IPCs derived from human MSCs; test: Insulin release by IPCs quantified by human insulin ELISA; details: IBMX 100 μM, low glucose concentration (5 mM), 1 hour incubation in KRB buffer, FIG. 3B, p<0.05
Protocol: Insulin is an endocrine for reducing blood sugar, and normal islet cells are induced by glucose to release insulin. In order to quantify insulin release by IPCs, a human insulin ELISA (Enzyme-Link ImmunoSorbent Assay) is employed herein.
The suspension stage IV cells are rinsed twice in Phosphate Buffered Saline (PBS) and Krebs-Ringer bicarbonate (KRB) buffer (120 mM NaCl, 5 m M KCl, 2.5 m M CaCl2, 1.1 mM MgCl2, 25 mM NaHCO3 , 0.1 BSA) and preincubated for 1 hour with KRB buffer containing 5 mM glucose. The suspension stage IV cells are then incubated for 1 hour in fresh KRB buffer with 5 mM, 10 mM, 15 mM or 25 mM glucose, and the released insulin in the incubation medium is quantified by ELISA. The quantified insulin release results are shown in FIG. 3A, wherein undifferentiated MSCs are served as a control (*p<0.05 as compared with 5 mM; #p<0.05 as compared with 10 mM; student's t test). […] The insulin secreted by IPCs derived from human MSCs in the present invention is up to 1.1 ng/h/2.5×10^5 IPCs, which is even higher than those secreted by IPCs derived from rodent bone marrow stem cells in the prior art (referring to the citations 5-7). […]

human MSCs [2] = test: Insulin and Glut2 gene expression in stage IV cells by real-time RT-PCR, normalized by GAPDH (FIGS. 4A, 4B); details: pellet suspension culture; for gene expressions of insulin and Glut2: 5 μg/mL ECM, compared with pellet culture without any ECM
Protocol: In order to further compare the different differentiation effects resulting from different ECMs when stem cells differentiate into IPCs in pellet suspension culture, the present invention performs the tests by adding fibronectin and laminin in combination or separately.
The gene expressions of insulin and Glut2 in stage IV cells of the present embodiments I-IV are analyzed by real-time RT-PCR respectively, and the detected results are further normalized by the expression level of glyceraldehyde-3-phosphate dehydrogenase (GAPDH) to measure the mRNA expression levels.

human MSCs [3] = test: Dithizone (DTZ) staining for islet differentiation; details: pellet suspension culture with versus without fibronectin, DTZ staining (not shown)
Text: Islet differentiation is further evaluated by dithizone (DTZ) staining to detect zinc ion, which binds six insulin molecules within the cells. Cells in the control groups I and II are not stained by DTZ; cells in the embodiment II are slightly stained by DTZ, and cells in the embodiment I are greatly stained by DTZ (not shown).

human MSCs [4] = test: Relative mRNA expression of insulin and Glut2 by RT-PCR and agarose electrophoresis, normalized by β-actin (FIG. 1); details: end of four-stage culture
Text: Islet cells are aggregated cells, and the extracellular matrix (ECM) thereof includes fibronectin and laminin. The present invention provides a method for promoting MSCs to differentiate into IPCs by cell pellet suspension culture with additional fibronectin or laminin. The cells of the embodiments and the control groups at the end of the four-stage culture are harvested, and the relative mRNA expression levels of insulin and glucose transporter 2 (Glut2) thereof are detected by reverse-transcription polymerase chain reaction (RT-PCR) and agarose electrophoresis, and are normalized by the expression level of β-actin. In addition, it should be noted that all of the bar graphs shown in FIGS. 1-4 are represented by the measured mean with its standard deviation.

[5] = monolayer culture with 5 μg/mL fibronectin (control group I)
[6] = pellet suspension culture with 5 μg/mL fibronectin (embodiment I)

| Compound | insulin release [1] | gene expressions of insulin and Glut2 (human MSCs [2]) | differentiation of MSCs into IPCs (human MSCs [3]) | Glut2 expression (human MSCs [4]; [5]) | gene expression of insulin (human MSCs [4]; [5]) | Glut2 expression (human MSCs [4]; [6]) | gene expression of insulin (human MSCs [4]; [6]) | gene expression level compared with fibronectin plus laminin (human MSCs [2]) | insulin and Glut2 expressions compared with fibronectin only (human MSCs [2]; compared with embodiment I (fibronectin only)) |
| --- | --- | --- | --- | --- | --- | --- | --- | --- | --- |
| CC(C)Cn1c(=O)n(C)c(=O)c2[nH]cnc21 [IBMX, 3-isobutyl-1-methylxanthine] | stimulates insulin release | – | – | – | – | – | – | – | – |
| fibronectin | – | increased gene expressions of insulin and Glut2 | can further enhance the differentiation of MSCs into IPCs | moderately detected | not detected | markedly detected | obviously detected | – | – |
| laminin | – | increased gene expressions of insulin and Glut2 | – | – | – | – | – | significantly higher than that of the embodiment IV | higher than the embodiment I |
